Experimental findings from patent US5424303A, “Substituted aminophosphonate derivatives, process for their preparation and pharmaceutical compositions containing them” (Symphar SA, priority 1992, dated 1995) are described below.

Assay [1] has as its system plasma cholesterol. The assay can be described thus: Hypocholesterolemic activity, plasma cholesterol in mice fed test compound in diet. Format: in vivo, OF1 strain mice. To be noted: for change in vivo at 180 mg/kg/day: Mus musculus, feed or water, 240 h, read-out: Plasma Cholesterol (% Control), 0.1% compound in food, 10 days, ca. 180 mg/kg daily, mouse; for decrease plasma cholesterol by / Plasma Cholesterol (% Control): mouse, 10 days; for decrease plasma cholesterol by: 0.1% in food; for Plasma Cholesterol (% Control): 0.1% compound in food, ca. 180 mg/kg daily. The method, then: A. Hypocholesterolemic activity
Mouse fed a normal diet is a convenient model which was proposed by several authors (P. Olivier et al, Atherosclerosis 70, 107-114, 1988) ,for the screening for hypocholesterolemic drugs. OF1 strain mice (Iffa Credo) weighing between 25 and 35 g were divided into 5 groups of 5 animals each, four groups received the test compounds and the fifth group served as control. The test compounds were dissolved in diethyl ether. The ether solution was added to food to obtain a final concentration of 0.1%. compound in food. Ether was then evaporated at room temperature. The animals were fed for 10 days, the dally food intake corresponds to ca. 180 mg/kg. After an overnight fast, they were sacrificed by decapitation under ether anesthesia. Blood samples were collected using EDTA as anticoagulant.
Plasma cholesterol was measured by an enzymatic test (DIAMED, Morat, Switzerland). The mean values of each group receiving the test or reference compounds were expressed as percent of mean value of the contemporary control.

In assay [2] the test system is lipid peroxidation (rat liver homogenate). The assay can be described thus: Antioxidant activity, inhibition of iron induced lipid peroxidation in liver homogenate. It counts as biochemical, Wistar rat. To be noted: FeSO4, 37° C., 2 h; <25 μM where IC50 was not determined. The method, then: The liver of a Wistar rat anesthetized with ether was collected and homogenized in 4 volumes of phosphate buffer (+4° C., pH 7.4) by means of a Potter. After centrifugation at 2000 rpm for 10 min the supernatant obtained was kept at +4° C. Lipid peroxidation was carried out in presence of FeSOhd according to the method described by A. T. Quitaniha et at, Ann.
The mixture contained 1.7 ml phosphate buffer, 0.2 ml homogenate and 0.1 ml of a 2 mM FeSO4 solution. The test compounds were added in a volume of 61 μl of ethanol or DMSO. Oxydation was carried out at 37° C. for 2 h and was stopped by the addition of 20 μl of 2% ethanolic solution of BHT.

Structures can show the parent of a compound that is named as a salt.

As to `COP(=O)(OC)C(NCCCc1ccccc1)c1cc(C(C)(C)C)c(O)c(C(C)(C)C)c1` (stereo not shown) [Compound 21], in assay [1], the change in vivo at 180 mg/kg/day is -33% and the “decrease plasma cholesterol by” value is “more than 30%”. The half-maximal inhibitory concentration (IC50) in assay [2] is < 25 µM.
For `CCOP(=O)(OCC)C(NCCCc1ccccc1)c1cc(C(C)(C)C)c(O)c(C(C)(C)C)c1` (stereo not drawn) [Compound 22, Diethyl α-(3,5-di-tert-butyl-4-hydroxyphenyl)-N-(3-phenytpropyl)aminomethylphosphonate], in assay [1], the “Plasma Cholesterol (% Control)” value is -53 % Control and the “decrease plasma cholesterol by” value is “more than 30%”. This molecule also returned a half-inhibitory concentration (IC50) in assay [2] of 4 µM.
For `CCCOP(=O)(OCCC)C(NCCCc1ccccc1)c1cc(C(C)(C)C)c(O)c(C(C)(C)C)c1` (stereo not shown) [Compound 23], in assay [1], the change in vivo at 180 mg/kg/day is -4%. For the same molecule, in assay [2], the 50% inhibitory concentration (IC50) was < 25 µM.
On to `CC(C)OP(=O)(OC(C)C)C(NCCCc1ccccc1)c1cc(C(C)(C)C)c(O)c(C(C)(C)C)c1` (stereo not shown) [Compound 24], for which, in assay [1], the change in vivo at 180 mg/kg/day is -22%. Besides, the half-inhibitory concentration (IC50) in assay [2] is < 25 µM.
Take `CCCCOP(=O)(OCCCC)C(NCCCc1ccccc1)c1cc(C(C)(C)C)c(O)c(C(C)(C)C)c1` (stereo not shown) [Compound 25]: the change in vivo at 180 mg/kg/day in assay [1] was -4%. In assay [2], the half-maximal inhibitory concentration (IC50) is < 25 µM.
With `CCOP(=O)(OCC)C(NCCCc1ccccc1)c1cc(C(C)(C)C)c(O)c(C(C)(C)C)c1` (stereo not drawn) [Compound 26, Hydrochloride salt of diethyl α-(3,5-di-tert-butyl-4-hydroxyphenyl),N-(3-phenylpropyl)-animomethylphosphonate], the “Plasma Cholesterol (% Control)” value in assay [1] is -11 % Control. Moreover, in assay [2], the half-inhibitory concentration (IC50) is < 25 µM.
As for `CCOP(=O)(OCC)C(NCCCCc1ccccc1)c1cc(C(C)(C)C)c(O)c(C(C)(C)C)c1` (stereo not drawn) [Compound 27, Diethyl α-(3 ,5-di-tert-butyl-4-hydroxyphenyl)-N-(4-phenylbutyl)-aminomethylphosphonate], in assay [1], the change in vivo at 180 mg/kg/day was -43% and the “decrease plasma cholesterol by” value is “more than 30%”. In addition, in assay [2], 2.1 µM corresponded to half-maximal inhibition (IC50).
In the case of `CCOP(=O)(OCC)C(NCCOc1ccccc1)c1cc(C(C)(C)C)c(O)c(C(C)(C)C)c1` (stereo not shown) [Compound 28], the change in vivo at 180 mg/kg/day in assay [1] worked out at 4%. In addition, in assay [2], the IC50 was < 25 µM.
For the molecule `CCOP(=O)(OCC)C(NC(C)c1ccccc1)c1cc(C(C)(C)C)c(O)c(C(C)(C)C)c1` (stereo not drawn) [Compound 29, Diethyl α-(3,5-di-tert-butyl-4-hydroxyphenyl)-N-(1-phenylethyl)-aminomethyldiphosphonate], in assay [1], the change in vivo at 180 mg/kg/day was -32% and the “decrease plasma cholesterol by” value was “more than 30%”. Also, the concentration for half-maximal inhibition (IC50) in assay [2] is 5.5 µM.
As for `CCOP(=O)(OCC)C(NC(C)CCc1ccccc1)c1cc(C(C)(C)C)c(O)c(C(C)(C)C)c1` (stereo not shown) [Compound 30], in assay [1], the change in vivo at 180 mg/kg/day was -12%. The IC50 in assay [2] was 15.6 µM.
In the case of `CCOP(=O)(OCC)C(NC(C)c1cccc2ccccc12)c1cc(C(C)(C)C)c(O)c(C(C)(C)C)c1` (stereo not shown) [Compound 31], in assay [1], the change in vivo at 180 mg/kg/day is -3%. In assay [2], the half-maximal inhibitory concentration (IC50) is < 25 µM.
In the case of `CCOP(=O)(OCC)C(NC(c1ccccc1)c1ccccc1)c1cc(C(C)(C)C)c(O)c(C(C)(C)C)c1` (stereo not shown) [Compound 32], the change in vivo at 180 mg/kg/day in assay [1] was -12%. For the same molecule, the IC50 in assay [2] is < 25 µM.
For `CCOP(=O)(OCC)C(NC(Cc1ccccc1)c1ccccc1)c1cc(C(C)(C)C)c(O)c(C(C)(C)C)c1` (stereo not shown) [Compound 33], the change in vivo at 180 mg/kg/day in assay [1] was -14%. Besides, the half-inhibitory concentration (IC50) in assay [2] is < 25 µM.
The like results for `CCOP(=O)(OCC)C(NC1CC(C)(C)NC(C)(C)C1)c1cc(C(C)(C)C)c(O)c(C(C)(C)C)c1` (stereo not shown) [Compound 35] were, in that order, -17% and > 25 µM.
With `CCOP(=O)(OCC)C(NC1CCN(Cc2ccccc2)CC1)c1cc(C(C)(C)C)c(O)c(C(C)(C)C)c1` (stereo not shown) [Compound 36], in assay [1], the change in vivo at 180 mg/kg/day is -6%. Also, the IC50 in assay [2] is < 25 µM.
Take `CCOP(=O)(OCC)C(NCCc1cccn1C)c1cc(C(C)(C)C)c(O)c(C(C)(C)C)c1` (stereo not shown) [Compound 37]: the change in vivo at 180 mg/kg/day in assay [1] was 12%. In addition, the IC50 in assay [2] stood at 4 µM.
Regarding `CCOP(=O)(OCC)C(NCc1ccc2c(c1)OCO2)c1cc(C(C)(C)C)c(O)c(C(C)(C)C)c1` (stereo not drawn) [Compound 38, Diethyl α-(3,5-di-tert-butyl4-hydroxyphenyl)-N-piperonyl-aminomethylphosphonate], in assay [1], the change in vivo at 180 mg/kg/day is -40% and the “decrease plasma cholesterol by” value was “more than 30%”. The IC50 in assay [2] was determined as 4.3 µM.
For the molecule `CCOP(=O)(OCC)C(NCc1ccc(OC)c(OC)c1)c1cc(C(C)(C)C)c(O)c(C(C)(C)C)c1` (stereo not shown) [Compound 39], the change in vivo at 180 mg/kg/day in assay [1] is -4%. In assay [2], this molecule returned a half-maximal inhibitory concentration (IC50) of 4.9 µM.
On the same counts, the results for `CCOP(=O)(OCC)C(Nc1cccnc1)c1cc(C(C)(C)C)c(O)c(C(C)(C)C)c1` (stereo not shown) [Compound 41] are -35% and 3.5 µM.
With `CCOP(=O)(OCC)C(NCc1cccnc1)c1cc(C(C)(C)C)c(O)c(C(C)(C)C)c1` (stereo not drawn) [Compound 42, Diethyl α-(3,5-di-tert-butyl-4-hydroxyphenyl)-N-(3-picolyl)-aminomethylphosphonate], in assay [1], the change in vivo at 180 mg/kg/day was -43% and the “decrease plasma cholesterol by” value is “more than 30%”. For the same molecule, the half-maximal inhibitory concentration (IC50) in assay [2] is 12.8 µM.
`CCOP(=O)(OCC)C(NCCc1ccccn1)c1cc(C(C)(C)C)c(O)c(C(C)(C)C)c1` (stereo not drawn) [Compound 43, Diethyl α-(3,5-di-tert-butyl-4-hydroxyphenyl)-N-[2-(2-pyridyl)-ethyl]aminomethyl-phosphonate]: in assay [1], the change in vivo at 180 mg/kg/day was -35% and the “decrease plasma cholesterol by” value is recorded as “more than 30%”. The 50% inhibitory concentration (IC50) in assay [2] is < 25 µM.
As for `CCOP(=O)(OCC)C(Nc1nc2ccccc2s1)c1cc(C(C)(C)C)c(O)c(C(C)(C)C)c1` (stereo not drawn) [Compound 44, Diethyl α-(3.5-di-tert-butyl-4-hydroxyphenyl)-N-(2-benzothiazolyl)-aminomethylphosphonate], the change in vivo at 180 mg/kg/day in assay [1] is -17%. Besides, the IC50 in assay [2] is < 25 µM.
On to `CCOP(=O)(OCC)C(NC1(c2ccccc2)CCCC1)c1cc(C(C)(C)C)c(O)c(C(C)(C)C)c1` (stereo not drawn) [Compound 45, Diethyl α-(3,5-di-tert-butyl-4-hydroxyphenyl)-N-(1-phenylcyclopentyl)-aminomethylphosphonate], for which the change in vivo at 180 mg/kg/day in assay [1] is -14%. Further, the IC50 in assay [2] is < 25 µM.
Take `CCOP(=O)(OCC)C(NC1CCc2ccccc21)c1cc(C(C)(C)C)c(O)c(C(C)(C)C)c1` (stereo not shown) [Compound 46]: the change in vivo at 180 mg/kg/day in assay [1] was -8%. Besides, the IC50 in assay [2] stood at 3.8 µM.
Turning to `CCOP(=O)(OCC)C(Nc1ccc2c(c1)CCC2)c1cc(C(C)(C)C)c(O)c(C(C)(C)C)c1` (stereo not shown) [Compound 47], the change in vivo at 180 mg/kg/day in assay [1] is -2%. The same molecule came in with an IC50 in assay [2] of 2.7 µM.
On the same counts, the results for `CCOP(=O)(OCC)C(Nc1ccc2c(c1)Cc1ccccc1-2)c1cc(C(C)(C)C)c(O)c(C(C)(C)C)c1` (stereo not shown) [Compound 48] are 3% and < 25 µM.
Take `CCOP(=O)(OCC)C(c1cc(C(C)(C)C)c(O)c(C(C)(C)C)c1)N(C)Cc1cccnc1` (stereo not drawn) [Compound 49, Diethyl α-(3.,5-di-tert-butyl-4-hydroxyphenyl)-N-methyl-N-(3-picolyl)aminomethylphosphonate]: in assay [1], the change in vivo at 180 mg/kg/day was -19%. In assay [2], this molecule yielded an IC50 of 12.8 µM.
The like results for `CCOP(=O)(OCC)C(c1cc(C(C)(C)C)c(O)c(C(C)(C)C)c1)N(C)c1ccccc1` (stereo not shown) [Compound 50] were, in that order, 5% and 2.9 µM.
Turning to `COP(=O)(OC)C(c1cc(C(C)(C)C)c(O)c(C(C)(C)C)c1)N(CCCc1ccccc1)C(C)=O` (stereo not shown) [Compound 59], the change in vivo at 180 mg/kg/day in assay [1] is -36%. For the same molecule, in assay [2], the IC50 was < 25 µM.
`CCOP(=O)(OCC)C(c1cc(C(C)(C)C)c(O)c(C(C)(C)C)c1)N(CCCc1ccccc1)C(C)=O` (stereo not drawn) [Compound 60, Diethyl α-(3,5-di-tert-butyl-4-hydroxyphenyl)-N-acetyl-N-(3-phenylpropyl)-aminomethylphosphonate]: in assay [1], the change in vivo at 180 mg/kg/day is -49% and the “decrease plasma cholesterol by” value is “more than 30%”. In addition, in assay [2], the IC50 was found to be 2.6 µM.
In the case of `CCCOP(=O)(OCCC)C(c1cc(C(C)(C)C)c(O)c(C(C)(C)C)c1)N(CCCc1ccccc1)C(C)=O` (stereo not shown) [Compound 61], in assay [1], the change in vivo at 180 mg/kg/day was -43% and the “decrease plasma cholesterol by” value is on record as “more than 30%”. Moreover, in assay [2], the half-inhibitory concentration (IC50) was < 25 µM.
For the molecule `CC(=O)N(CCCc1ccccc1)C(c1cc(C(C)(C)C)c(O)c(C(C)(C)C)c1)P(=O)(OC(C)C)OC(C)C` (stereo not shown) [Compound 62], in assay [1], the change in vivo at 180 mg/kg/day is -32% and the “decrease plasma cholesterol by” value is given as “more than 30%”. In addition, the IC50 in assay [2] is < 25 µM.
`CCCCOP(=O)(OCCCC)C(c1cc(C(C)(C)C)c(O)c(C(C)(C)C)c1)N(CCCc1ccccc1)C(C)=O` (stereo not shown) [Compound 63]: in assay [1], the change in vivo at 180 mg/kg/day is 4%. Moreover, in assay [2], the 50% inhibitory concentration (IC50) was < 25 µM.

A word on the IC50: it is the concentration at which inhibition is half-maximal. High values mean weaker potency in that assay, low ones greater potency in that assay.
